Assay results as given in patent publication US7098206B2, “Pharmaceutically active morpholinol” (SmithKline Beecham Corporation, priority 1998, dated 2006).
pIC50: −log10 of the molar value. Where two headings read alike, the source gives them in different places.

What was measured:
[1] = Dose-ranging safety study: serious adverse events (seizures and deaths); format: in vivo; conditions: for seizures observed, in words: 100 mg/kg p.o.
Protocol: Additional dose-ranging studies were performed to determine the range of safe doses for the isomers and the racemate. […]

[2] = tested on: TBZ-induced behavioural depression; experiment: Tetrabenazine-induced behavioural depression; format: in vivo, Male, CD-1 Mice; conditions: for effect on tetrabenazine-induced behavioural depression: 25 mg/kg (ip), FIG. 1; for dose-effect against TBZ-induced depression: 30 minutes prior to TBZ, n=6, FIGS. 2 and 3
Protocol: FIG. 2. Dose Response of Compound of Formula I Against TBZ-Induced Depression (Compounds administered 30 minutes prior to TBZ, Male, CD-1 Mice, i.p., n=6).
FIG. 3. Dose Response of Compound of Formula II Against TBZ-Induced Depression (Compounds administered 30 minutes prior to TBZ, Male, CD-1 Mice, i.p., n=6).
Tetrabenazine(TBZ)-induced behavioural depression was used as an in vivo measure of antidepressant activity. The test has been validated with a wide range of antidepressants, known to act through noradrenergic mechanisms (Cooper B. R. et al, “Animal models used in the prediction of antidepressant effects in man”, J. Clin. Psychiatry 44: 63–66, 1983). Moreover, the test was also used to identify Wellbutrin® as an anti-depressant. Briefly, animals were injected with the candidate agent (p.o. or i.p.) 30 minutes before receiving an i.p. injection of tetrabenazine (35 mg/kg, as the HCl salt—prepared fresh for each use). Assessments were performed 30 minutes thereafter and included: locomotor activity (1–4 scale); ptosis (1–4 scale) and body temperature as described previously (Cooper, B. R., J. L. Howard, and F. E. Soroko, Animal models used in prediction of antidepressant effects in man (Journal of Clinical Psychiatry, 44: p. 63–6, 1983). In all studies, the scientist performing the assessments was blind to the treatments. All parameters were weighted equally to give a “lumped” score (X) through the following algorithm: X=(1+Ptosis score)/(Activity score*[Temp,treated/Temp,control]

[3] = biological target: T1, dopamine uptake, synaptosomes from rat caudoputamen (Rattus norvegicus, UniProt P23977); experiment: In vitro synaptosomal [3H]-dopamine uptake; format: biochemical; conditions: for pIC50: rat caudoputamen synaptosomes
T1 construct: Synaptosomes for use in obtaining in vitro uptake data were prepared from hypothalamus or striatum by gently homogenizing the tissue; from tissue; host or cells: rat caudoputamen (striatum) synaptosomes
Excerpt: (§1) Similarities and differences. Molecular Pharmacology, 21: p.

[4] = biological target: T2, noradrenaline (NA) uptake, synaptosomes from rat hypothalamus (Rattus norvegicus, UniProt Q63380); experiment: In vitro synaptosomal [3H]-noradrenaline uptake; format: biochemical; conditions: for pIC50: rat hypothalamus synaptosomes
T2 construct: Synaptosomes for use in obtaining in vitro uptake data were prepared from hypothalamus or striatum by gently homogenizing the tissue; from tissue; host or cells: rat hypothalamus synaptosomes
Excerpt: as §1

[5] = biological target: T3, serotonin uptake, synaptosomes from rat hypothalamus (Rattus norvegicus, UniProt P31652); conditions: at 30 mM (so in the source)
Protocol: (§2) In vitro uptake was determined, as reported previously, using synaptosomes prepared from rat caudoputamen (for dopamine uptake) and hypothalamus (for NA and serotonin uptake) using [^3H]-dopamine, [^3H]-NA and [^3H]-serotonin as transport substrates, respectively.
(§3) Synaptosomes for use in obtaining in vitro uptake data were prepared from hypothalamus or striatum by gently homogenizing the tissue in a 0.3 M sucrose/25 mM Tris pH 7.4 buffer containing iproniazid phosphate to inhibit monoamine oxidase. The homogenate was centrifuged at 1100×g at 4° C. for 10 min and the supernatant was used for uptake studies. […] Under these conditions uptake was linear with respect to both for substrate and tissue (with <5% total substrate transported). Non-specific uptake was defined as uptake at 0° C. [^3H]-substrate, which had been transported into synaptosomes, was separated from free [^3H]-substrate by filtration over GF/B filters and washing with cold Krebs-Henseleit buffer. The filters were counted for tritum in a liquid scintillation spectrometer.

[6] = biological target: T3, serotonin uptake, synaptosomes from rat hypothalamus; experiment: biochemical
Protocol: as §2, §3

[7] = tested on: sexual behaviour of male mice; experiment: Mouse sexual behaviour model; format: in vivo, mice (C57BL/6 inbred strain); conditions: hydrochloride salt
Protocol: Male (10 weeks old) and female (8 weeks old) mice (C57BL/6 inbred strain, Charles River, Como (Italy) that had no reproductive or copulatory experience were used in the study. Females were brought into behavioral oestrus with s.c. injections of 0.03 mg estradiol benzoate approximately 48 hr before testing and 0.1 mg progesterone, in sesame oil, 4 hr before testing.
The compound of formula (I) (as its hydrochloride salt) was dissolved in saline to provide a solution for intraperitoneal injection at a dose of 3 mg/kg, with a dose volume of 10 ml/kg. Dosing was performed one hour prior to the test.
Tests were conducted in Perspex arenas, 30 cm in diameter and 50 cm high, which were placed in the cage in which males had been placed individually one day prior to test. The sexual behaviour was filmed remotely under red light for 30 min using a video camera and recorder, the test starting immediately after placing a female mouse into the male's cage. Behavior parameters recorded were (i) the extent of male/female interaction, (ii) the extent of genital sniffing, and (iii) the mount frequency (the number of male mounts).

[8] = tested on: MPTP-induced Parkinsonian marmosets; experiment: MPTP-treatment Parkinson's disease model; format: in vivo; conditions: hydrochloride salt, once weekly by oral gavage, MPTP-treated marmosets
Protocol: Locomotor deficits and motor disability were induced in marmosets by the administration of MPTP 2 mg/kg sc on five consecutive days. After the acute effects of MPTP administration had been overcome, bradykinesia, rigidity and loss of vocalisation remained. The compound of formula (I) (as its hydrochloride salt) was administered once weekly by oral gavage, freshly dissolved in 10% sucrose solution with dosages calculated as the free base. […] Assessment of motor disablities was by an observer through a one-way mirror: alertness, checking movements, posture, balance/co-ordination, reaction, vocalisation and motility were each scored. A score of zero indicated a “normally” behaing animal, while a maximum total score of 18 in the monitoring period indicated a severely disabled animal.

[9] = tested on: CCI-induced decrease in mechanical paw withdrawal threshold; experiment: Chronic constriction injury model of mononeuropathy; format: in vivo, male Random Hooded rats; conditions: CCI rats, FIG. 6
Excerpt: Mononeuropathy was reproduced in male Random Hooded rats (180–250 g) using the Chronic Constriction Injury (CCI) model as described by Bennett and Xie (1988). Under Isoflurane anaesthesia, the common left sciatic nerve of the rats was exposed at mid thigh level. Four ligatures of Chromic gut (4.0) were tied loosely around the nerve with a 1 mm spacing between each. The wound was then closed and secured with suture staples. The surgical procedure was identical for the sham operated animals except the sciatic nerve was not ligated. The animals were allowed a period of 12 days to recover from the surgery before any behavioural testing began.
The effect of the compound of formula (I) (administered as the hydrochloride salt at 20 mgkg^−1 t.i.d. p.o. chronically for a period of 7 days) on CCI-induced decrease in mechanical paw withdrawal threshold was measured using an algesymeter (Randall & Selitto, 1957).

[10] = read-out: IC50, [3H]-Dopamine Uptake
[11] = 3 mg/kg intraperitoneal, one hour prior to 30 min test
[12] = intraperitoneal injection, versus control

T3 sequence (P31652 whole entry): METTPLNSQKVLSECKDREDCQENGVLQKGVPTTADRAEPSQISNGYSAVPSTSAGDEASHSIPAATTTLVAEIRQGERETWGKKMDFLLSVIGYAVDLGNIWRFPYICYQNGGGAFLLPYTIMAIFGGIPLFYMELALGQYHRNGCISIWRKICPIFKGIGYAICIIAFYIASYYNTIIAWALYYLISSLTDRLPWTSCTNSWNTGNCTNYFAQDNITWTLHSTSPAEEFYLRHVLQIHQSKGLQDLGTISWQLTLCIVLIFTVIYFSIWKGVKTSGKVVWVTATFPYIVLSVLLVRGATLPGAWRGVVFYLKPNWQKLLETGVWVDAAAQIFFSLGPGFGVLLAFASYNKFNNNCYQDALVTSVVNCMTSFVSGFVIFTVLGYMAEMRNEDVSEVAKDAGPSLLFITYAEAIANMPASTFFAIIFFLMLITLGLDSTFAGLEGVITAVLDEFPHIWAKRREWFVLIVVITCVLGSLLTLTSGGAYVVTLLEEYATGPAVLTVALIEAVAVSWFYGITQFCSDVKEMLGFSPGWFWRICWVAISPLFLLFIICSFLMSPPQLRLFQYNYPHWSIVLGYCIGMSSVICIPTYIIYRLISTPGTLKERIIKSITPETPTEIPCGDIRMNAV
T2 sequence (Q63380 1-617): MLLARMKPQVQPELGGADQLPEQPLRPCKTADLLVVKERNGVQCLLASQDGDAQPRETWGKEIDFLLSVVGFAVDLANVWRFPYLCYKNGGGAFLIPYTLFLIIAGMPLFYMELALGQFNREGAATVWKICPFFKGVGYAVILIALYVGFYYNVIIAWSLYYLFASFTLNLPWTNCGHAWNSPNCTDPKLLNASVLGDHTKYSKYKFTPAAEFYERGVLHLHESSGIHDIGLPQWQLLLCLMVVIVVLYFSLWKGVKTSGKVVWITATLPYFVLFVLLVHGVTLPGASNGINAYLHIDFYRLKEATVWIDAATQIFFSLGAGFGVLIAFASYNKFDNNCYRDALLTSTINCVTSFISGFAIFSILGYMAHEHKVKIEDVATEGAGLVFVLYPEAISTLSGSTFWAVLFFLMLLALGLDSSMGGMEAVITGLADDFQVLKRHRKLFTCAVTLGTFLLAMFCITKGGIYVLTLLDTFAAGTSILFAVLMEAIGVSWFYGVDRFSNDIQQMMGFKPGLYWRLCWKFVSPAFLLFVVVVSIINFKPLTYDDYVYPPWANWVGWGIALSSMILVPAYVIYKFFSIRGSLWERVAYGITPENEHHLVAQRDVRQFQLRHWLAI
T1 sequence (P23977 whole entry): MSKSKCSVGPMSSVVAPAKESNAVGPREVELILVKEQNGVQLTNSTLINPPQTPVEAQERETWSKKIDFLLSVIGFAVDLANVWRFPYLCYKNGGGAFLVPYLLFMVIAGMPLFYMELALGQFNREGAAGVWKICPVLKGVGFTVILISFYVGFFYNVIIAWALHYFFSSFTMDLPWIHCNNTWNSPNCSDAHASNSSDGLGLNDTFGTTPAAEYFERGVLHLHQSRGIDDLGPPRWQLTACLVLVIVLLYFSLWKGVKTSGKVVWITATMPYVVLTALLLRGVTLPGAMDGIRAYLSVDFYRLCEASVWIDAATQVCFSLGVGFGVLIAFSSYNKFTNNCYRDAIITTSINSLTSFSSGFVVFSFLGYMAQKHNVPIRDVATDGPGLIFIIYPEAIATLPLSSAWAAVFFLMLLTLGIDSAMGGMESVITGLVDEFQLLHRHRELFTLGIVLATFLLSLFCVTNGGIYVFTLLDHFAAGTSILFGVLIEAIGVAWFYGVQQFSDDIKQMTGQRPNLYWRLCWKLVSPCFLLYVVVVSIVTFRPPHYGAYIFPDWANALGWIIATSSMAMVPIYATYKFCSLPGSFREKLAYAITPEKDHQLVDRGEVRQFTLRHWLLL

| SMILES | seizures observed, in words [1] | % Died ([1]; i.p., 100 mg/kg) | Seizures (%) ([1]; i.p., 100 mg/kg) | Time to Death ([1]; i.p., 100 mg/kg) | Time to Seizures ([1]; i.p., 100 mg/kg) | % Died ([1]; i.p., 300 mg/kg) | Seizures (%) ([1]; i.p., 300 mg/kg) | Time to Death ([1]; i.p., 300 mg/kg) | Time to Seizures ([1]; i.p., 300 mg/kg) | % Died ([1]; p.o., 100 mg/kg) | Seizures (%) ([1]; p.o., 100 mg/kg) | Time to Seizures ([1]; p.o., 100 mg/kg) | % Died ([1]; p.o., 300 mg/kg) | Seizures (%) ([1]; p.o., 300 mg/kg) | Time to Death ([1]; p.o., 300 mg/kg) | Time to Seizures ([1]; p.o., 300 mg/kg) | effect on tetrabenazine-induced behavioural depression [2] | pIC50 [3, 10] | pIC50 [4] | inhibition of serotonin uptake at a fixed concentration [5] | further results |
| --- | --- | --- | --- | --- | --- | --- | --- | --- | --- | --- | --- | --- | --- | --- | --- | --- | --- | --- | --- | --- | --- |
| CC1NC(C)(C)COC1(O)c1cccc(Cl)c1.Cl (racemic) [Racemate, (+/−)-(2R*,3R*)-2-(3-chlorophenyl)-3,5,5-trimethyl-2-morpholinol] | seizures were observed | 20% | 100% | 14 min | 3 min | 100% | 100% | 3 min | 3 min | 0% | 100% | 9.2 min | 80% | 100% | 7 min | 6.8 min | – | – | – | – | – |
| CN(C)CCC=C1c2ccccc2CCc2ccccc21 [amitryptyline] | – | – | – | – | – | – | – | – | – | – | – | – | – | – | – | – | abolished the tetrabenazine-induced behavioural depression | – | – | – | – |
| CC(NC(C)(C)C)C(=O)c1cccc(Cl)c1.Cl (racemic) [Bupropion, (±)-1-(3-chlorophenyl)-2-[(1,1-dimethylethyl)amino]-1-propanone hydrochloride] | – | – | – | – | – | – | – | – | – | – | – | – | – | – | – | – | abolished the tetrabenazine-induced behavioural depression | 5.72 | 5.66 | – | – |
| C[C@H]1NC(C)(C)CO[C@]1(O)c1cccc(Cl)c1 (single isomer, unassigned) [Formula (II)] | seizures were observed | 100% | 20% | 7 min | 5 min | 100% | 100% | 6 min | 1.1 min | 0% | 100% | 7.2 min | 100% | 100% | 7 min | 6.8 min | only modest activity | < 4.00 | < 4.52 | Neither compound inhibited serotonin uptake | pIC50 [6]: < 4.00; inhibition of dopamine (DA) uptake at a fixed concentration ([3]; at 30 μM): inactive; inhibition of noradrenaline (NA) uptake at a fixed concentration ([4]; at a concentration of 30 μM): ineffective; effect on TBZ-induced depression at the top dose ([2]; 50 mg/kg, i.p., FIG. 3): appeared to worsen the animal's condition; dose-effect against TBZ-induced depression ([2]; i.p.): did not possess dose-related activity |
| CC1NC(C)(C)COC1(O)c1cccc(Cl)c1 (stereo not drawn) [Racemate, (+/−)-(2R*,3R*)-2-(3-chlorophenyl)-3,5,5-trimethyl-2-morpholinol] | – | – | – | – | – | – | – | – | – | – | – | – | – | – | – | – | abolished the tetrabenazine-induced behavioural depression | – | – | – | – |
| C[C@@H]1NC(C)(C)CO[C@@]1(O)c1cccc(Cl)c1 (single isomer, unassigned) [Formula (I)] | – | 0% | 100% | – | 3.93 min | 100% | 100% | 6 min | 3.95 min | 0% | 0% | – | 0% | 100% | – | 11.23 min | abolished the tetrabenazine-induced behavioural depression | 5.03 | – | Neither compound inhibited serotonin uptake | M/F interaction [7, 11]: *228.8 ± 30.3 sec; Mount frequency, No. of events ± SEM [7, 11]: 6.6 ± 1.7; Time spent in genital sniffing [7, 11]: *203.6 ± 30.1 sec; genital sniffing, change in words [7, 12]: statistically significant (unpaired t-test) increase; male/female interaction, change in words [7, 12]: statistically significant (unpaired t-test) increase; mount frequency, change in words [7, 12]: trend towards increasing mount frequency; locomotor deficits ([8]; FIG. 4): reversed the locomotor deficits; motor disability ([8]; FIG. 5): reversed; % Died ([1]; i.p., 100 mg/kg, listed as compound of formula I): No deaths were observed; % Died ([1]; p.o., 300 mg/kg, listed as compound of formula I): no deaths were observed; pIC50 [6]: < 4.52; pIC50 ([3]; IC50, [3H]-Dopamine Uptake): ~5.00; potency as inhibitor of dopamine uptake, fold less potent ([3]; unlike Wellbutrin, comparison as worded): approximately 10 fold; potency as NA inhibitor relative to Wellbutrin ([4]; versus Wellbutrin): approximately twice as potent; dose-effect against TBZ-induced depression ([2]; i.p.): sharp increase in activity between 3 mg/kg and 6 mg/kg; mechanical paw withdrawal threshold on cessation of treatment ([9]; after 20 mgkg−1 t.i.d. p.o. for 7 days): falling back towards CCI-operated vehicle-treated levels; mechanical paw withdrawal threshold during chronic dosing ([9]; hydrochloride salt, 20 mgkg−1 t.i.d. p.o. for 7 days): reversal was maintained throughout the chronic dosing period; mechanical paw withdrawal threshold after a single dose ([9]; hydrochloride salt, single dose 20 mgkg−1 p.o.): immediate reversal of the fall in paw withdrawal threshold back towards sham operated levels |
